Results: patent US12281225B2, “Process for preparing stable polymers containing vinylimidazole” (BASF SE, priority 2018, dated 2025)

How the values were obtained:
Assay type in all cases: physicochemical
[1] = Iodine color number according to DIN 6162:2014-09
[2] = Physical stability; visual assessment (color, turbidity, phase separation); parameters: key: ++: no discernible change with respect to color, turbidity or phase separation; +: marginal change in color number, somewhat increased Tyndall effect but no turbidity; 0: easily discernible increase in color number and moderate turbidity−no phase separation; −: turbidity and change in color number readily discernible by visual assessment; −−: strong color change with strong turbidity and incipient phase separation
Text: Physical stability; visual assessment according to:
++=no discernible change with respect to color, turbidity or phase separation; +=marginal change in color number, somewhat increased Tyndall effect but no turbidity; 0=easily discernible increase in color number and moderate turbidity−no phase separation; − turbidity and change in color number readily discernible by visual assessment; −− strong color change with strong turbidity and incipient phase separation.
Before storage, all batches could be rated ++ (no turbidity or phase separation; no influence of the biocide on the color number of the product).

[3] = Analysis of active substance: preservative concentration before and after storage in VI-containing polymer solution; settings: for active-substance concentration, 0 d, RT: before storage; for active-substance concentration, 14 d, 40° C.: storage 14 d at 40° C.; for active-substance concentration, 28 d, 40° C.: storage 28 d at 40° C.; for active-substance concentration, 60 d 40° C.: storage 60 d at 40° C.
Procedure: Stability of Preservatives in VI-Containing Polymers:
The following stabilizers for VI-containing polymers (here: aqueous solution of a copolymer of vinylpyrrolidone and vinylimidazole) were tested.
MIT, BIT, CMIT, OIT, DCOIT and iodopropynyl butyl carbamate were determined by RP chromatography with UV detection after dilution of the sample to be tested. An RP18 column was used for this purpose, with an eluent composed of an acid-methanol mixture under isocratic conditions.

[4] = Polymer P5 (HP56) with stabilizer

## CCCCCCCCCC[N+](C)(C)CCCCCCCCCC.[Cl-] [DDAC, didecyldimethylammonium chloride]
[1]; Polymer P1 with stabilizer
  Iodine color number, 60 d 40° C.: 2.9
  Iodine color number, start: 2.9
[1]; Polymer P2 with stabilizer
  Iodine color number, 60 d 40° C.: 3.0
  Iodine color number, start: 2.9
[1]; Polymer P3 with stabilizer
  Iodine color number, 60 d 40° C.: 3.3
  Iodine color number, start: 3.3
[1]; Polymer P4 with stabilizer
  Iodine color number, 60 d 40° C.: 3.3
  Iodine color number, start: 3.3
[1]; [4]
  Iodine color number, 60 d 40° C.: 3.3
  Iodine color number, start: 3.3
[1]; Polymer P6 with stabilizer
  Iodine color number, 60 d 40° C.: 3.3
  Iodine color number, start: 3.3
[1]; Polymer P7 with stabilizer
  Iodine color number, 60 d 40° C.: 3.3
  Iodine color number, start: 3.3
[1]; Polymer P8 with stabilizer
  Iodine color number, 60 d 40° C.: 3.3
  Iodine color number, start: 3.3
[1]; Polymer P9 with stabilizer
  Iodine color number, 60 d 40° C.: 3.9
  Iodine color number, start: 3.8
[2]; Polymer P1 with stabilizer
  Physical stability, 60 d 40° C.*: ++
[2]; Polymer P2 with stabilizer
  Physical stability, 60 d 40° C.*: ++
[2]; Polymer P3 with stabilizer
  Physical stability, 60 d 40° C.*: ++
[2]; Polymer P4 with stabilizer
  Physical stability, 60 d 40° C.*: ++
[2]; [4]
  Physical stability, 60 d 40° C.*: ++
[2]; Polymer P6 with stabilizer
  Physical stability, 60 d 40° C.*: ++
[2]; Polymer P7 with stabilizer
  Physical stability, 60 d 40° C.*: ++
[2]; Polymer P8 with stabilizer
  Physical stability, 60 d 40° C.*: ++
[2]; Polymer P9 with stabilizer
  Physical stability, 60 d 40° C.*: ++
[3]; in Polymer P1
  active-substance concentration, 0 d, RT: 950 ppm
  active-substance concentration, 14 d, 40° C.: 950 ppm
  active-substance concentration, 28 d, 40° C.: 940 ppm
  active-substance concentration, 60 d 40° C.: 940 ppm
[3]; in Polymer P2
  active-substance concentration, 0 d, RT: 950 ppm
  active-substance concentration, 14 d, 40° C.: 950 ppm
  active-substance concentration, 28 d, 40° C.: 940 ppm
  active-substance concentration, 60 d 40° C.: 940 ppm
[3]; in Polymer P3
  active-substance concentration, 0 d, RT: 950 ppm
  active-substance concentration, 14 d, 40° C.: 950 ppm
  active-substance concentration, 28 d, 40° C.: 940 ppm
  active-substance concentration, 60 d 40° C.: 930 ppm
[3]; in Polymer P4
  active-substance concentration, 0 d, RT: 950 ppm
  active-substance concentration, 14 d, 40° C.: 950 ppm
  active-substance concentration, 28 d, 40° C.: 942 ppm
  active-substance concentration, 60 d 40° C.: 940 ppm
[3]; in Polymer P5 (HP56)
  active-substance concentration, 0 d, RT: 950 ppm
  active-substance concentration, 14 d, 40° C.: 950 ppm
  active-substance concentration, 28 d, 40° C.: 940 ppm
  active-substance concentration, 60 d 40° C.: 940 ppm
[3]; in Polymer P6
  active-substance concentration, 0 d, RT: 950 ppm
  active-substance concentration, 14 d, 40° C.: 950 ppm
  active-substance concentration, 28 d, 40° C.: 950 ppm
  active-substance concentration, 60 d 40° C.: 943 ppm
[3]; in Polymer P7
  active-substance concentration, 0 d, RT: 950 ppm
  active-substance concentration, 14 d, 40° C.: 947 ppm
  active-substance concentration, 28 d, 40° C.: 945 ppm
  active-substance concentration, 60 d 40° C.: 938 ppm
[3]; in Polymer P8
  active-substance concentration, 0 d, RT: 950 ppm
  active-substance concentration, 14 d, 40° C.: 950 ppm
  active-substance concentration, 28 d, 40° C.: 940 ppm
  active-substance concentration, 60 d 40° C.: 940 ppm
[3]; in Polymer P9
  active-substance concentration, 0 d, RT: 950 ppm
  active-substance concentration, 14 d, 40° C.: 950 ppm
  active-substance concentration, 28 d, 40° C.: 944 ppm
  active-substance concentration, 60 d 40° C.: 940 ppm
